Assay results from patent US11161839B2, “2-quinolone derived inhibitors of BCL6” (Cancer Research Technology Limited, priority 2017, dated 2021).
Read-outs that look alike come from different tables or passages of the source.

Experiments:
[1] = target: human BCL6 BTB domain (Trx-6xHis-BCL6) (Homo sapiens (Human), UniProt P41182); assay: HTRF in vitro assay (BCL6 BTB domain / BCOR-AF633 peptide); format: binding; details: for IC50: read-out: HTRF pIC50 (converted)
[2] = target: BCL6-NCOR2(SMRT) corepressor protein-protein interaction (Homo sapiens (Human), UniProt P41182); assay: NanoBRET cell assay in transfected HEK293T cells; format: cell-based; details: further generated data (Table 2b); HEK293T cells, 6 hr; read-out: NanoBRET cell pIC50 (converted)
[3] = further generated data (Table 1b), 1 nM Trx-6xHis-BCL6, 0.5 nM anti-6xHis-Terbium cryptate
[4] = initially generated data (Table 1a), 10 nM Trx-6xHis-BCL6, 1 nM anti-6xHis-Terbium cryptate

Row | Compound | HTRF pIC50 [1, 3] | other results
1 | C[C@@H](CCO)Nc1cc(=O)n(C)c2ccc(Nc3ccnc(Cl)c3C#N)cc12 [Example 3n, (S)-2-Chloro-4-((4-((4-hydroxybutan-2-yl)amino)-1-methyl-2-oxo-1,2-dihydroquinolin-6-yl)amino)nicotinonitrile] | 6.01 | HTRF pIC50 [1, 4]: 6.31
2 | Cc1nc(C(C)Nc2cc(=O)n(C)c3ccc(Nc4ccnc(Cl)c4C#N)cc23)no1 (stereo not drawn) [Example 1h, 2-chloro-4-[[1-methyl-4-[1-(5-methyl-1,2,4-oxadiazol-3-yl)ethylamino]-2-oxo-6-quinolyl]amino]pyridine-3-carbonitrile] | 6.38 | HTRF pIC50 [1, 4]: 6.40
3 | CNC(=O)c1cc(Nc2ccc3c(c2)c(N[C@H]2CCC[C@H]2OC)cc(=O)n3C)c(C#N)c(Cl)n1 (racemic) [Example 19g, rac-6-chloro-5-cyano-4((4-(((1S,2R)-2-methoxycyclopentyl)amino)-1-methyl-2-oxo-1,2-dihydroquinolin-6-yl)amino)-N-methylpicolinamide] | – | IC50 [1, 3]: 851 nM
4 | Cn1c(=O)cc(NC(C)(C)c2ncccn2)c2cc(Nc3cc(C(=O)N4CC5(CCO5)C4)nc(Cl)c3C#N)ccc21 [Example 8g, 2-chloro-4-((1-methyl-2-oxo-4-((2-(pyrimidin-2-yl)propan-2-yl)amino)-1,2-dihydroquinolin-6-yl)amino)-6-(1-oxa-6-azaspiro[3.3]heptane-6-carbonyl)nicotinonitrile] | 7.82 | –
5 | Cc1n[nH]c(C(C)Nc2cc(=O)n(C)c3ccc(Nc4ccnc(Cl)c4C#N)cc23)n1 (stereo not drawn) [Example 3c, 2-Chloro-4-((1-methyl-4-((1-(3-methyl-1H-1,2,4-triazol-5-yl)ethyl)amino)-2-oxo-1,2-dihydroquinolin-6-yl)amino)nicotinonitrile] | 6.50 | HTRF pIC50 [1, 4]: 6.65
6 | CC(Nc1cc(=O)n(C)c2ncc(Nc3ccnc(Cl)c3Cl)cc12)c1ncccn1 (stereo not drawn) [Example 6e, 6-((2,3-dichloropyridin-4-yl)amino)-1-methyl-4-((1-(pyrimidin-2-yl)ethyl)amino)-1,8-naphthyridin-2(1H)-one] | 6.28 | –
7 | C[C@@H](Nc1cc(=O)n(C)c2ccc(Nc3ccnc(Cl)c3C#N)cc12)C(=O)NCCO [Example 3b, (R)-2-((6-((2-chloro-3-cyanopyridin-4-yl)amino)-1-methyl-2-oxo-1,2-dihydroquinolin-4-yl)amino)-N-(2-hydroxyethyl)propanamide] | 6.57 | HTRF pIC50 [1, 4]: 6.73
8 | CNC(=O)c1cc(Nc2ccc3c(c2)c(NC2CCC2OC)cc(=O)n3C)c(C#N)c(Cl)n1 (racemic) [Example 23b, rac-6-chloro-5-cyano 4-((4-(((1R,2R)-2-methoxycyclobutyl)amino)-1-methyl-2-oxo-1,2-dihydroquinolin-6-yl)amino)-N-methylpicolinamide or rac-6-chloro-5-cyano-4-((4-(((1R,2S)-2-methoxycyclobutyl)amino)-1-methyl-2-oxo-1,2-dihydroquinolin-6-yl)amino)-N-methylpicolinamide] | – | IC50 [1, 3]: 468 nM
9 | CCNC(=O)C(C)Nc1cc(=O)n(C)c2ccc(Nc3ccnc(Cl)c3C#N)cc12 (racemic) [Example 3k, rac-2-((6-((2-Chloro-3-cyanopyridin-4-yl)amino)-1-methyl-2-oxo-1,2-dihydroquinolin-4-yl)amino)-N-ethylpropanamide] | – | IC50 [1, 4]: 676 nM

More lines, main results first:

Row | HTRF pIC50 [1, 3] | Compound | other results
10 | 6.44 | CCOC(=O)c1cc(Nc2ccc3c(c2)c(NC(C)c2ncccn2)cc(=O)n3C)n2nccc2n1 (stereo not drawn) [Example 10q, ethyl 7-((1-methyl-2-oxo-4-((1-(pyrimidin-2-yl)ethyl)amino)-1,2-dihydroquinolin-6-yl)amino)pyrazolo[1,5-a]pyrimidine-5-carboxylate] | IC50 [2]: 2690 nM
11 | 6.49 | Cn1c(=O)cc(NC2(C#N)CC2)c2cc(Nc3ccnc(Cl)c3C#N)ccc21 [Example 24b, 2-chloro-4-((4-((1-cyanocyclopropyl)amino)-1-methyl-2-oxo-1,2-dihydroquinolin-6-yl)amino)nicotinonitrile] | IC50 [2]: 4790 nM
12 | 6.84 | Cn1c(=O)cc(NC(C)(C)C)c2cc(Nc3cc(C(=O)O)nc(Cl)c3C#N)ccc21 [Example 9n, 4-((4-(tert-butylamino)-1-methyl-2-oxo-1,2-dihydroquinolin-6-yl)amino)-6-chloro-5-cyanopicolinic acid] | –
13 | 7.32 | Cn1c(=O)nc(NC(C)(C)c2ncccn2)c2cc(Nc3nc(N4CCC(F)(F)C(CO)C4)ncc3Cl)ccc21 (stereo not drawn) [Example 12i, 6-((5-chloro-2-(4,4-difluoro-3-(hydroxymethyl)piperidin-1-yl)pyrimidin-4-yl)amino)-1-methyl-4-((2-(pyrimidin-2-yl)propan-2-yl)amino)quinazolin-2(1H)-one] | –
14 | 6.58 | CC(Nc1nc(=O)n(C)c2ccc(Nc3nc(N4C[C@H](C)C[C@H](C)C4)ncc3Cl)cc12)c1ncccn1 (stereo partly drawn) [Example 12e, 6-((5-chloro-2-((3R,5S)-3,5-dimethylpiperidin-1-yl)pyrimidin-4-yl)amino)-1-methyl-4-((1-(pyrimidin-2-yl)ethyl)amino)quinazolin-2(1H)-one:formic acid (1:1)] | –
15 | 6.32 | COc1cc(Nc2ccnc(Cl)c2C#N)cc2c(NC(C)(C)c3ncccn3)cc(=O)n(C)c12 [Example 10r, 2-chloro-4-((8-methoxy-1-methyl-2-oxo-4-((2-(pyrimidin-2-yl)propan-2-yl)amino)-1,2-dihydroquinolin-6-yl)amino)nicotinonitrile] | –
16 | 6.49 | Cn1c(=O)cc(NC2CC2(C)C)c2cc(Nc3cc(C(=O)O)nc(Cl)c3C#N)ccc21 (stereo not drawn) [Example 9j, 6-chloro-5-cyano-4-((4-((2,2-dimethylcyclopropyl)amino)-1-methyl-2-oxo-1,2-dihydroquinolin-6-yl)amino)picolinic acid] | –
17 | 7.05 | Cn1c(=O)cc(NC2(C#N)CC2)c2cc(Nc3cc(C(=O)O)nc(Cl)c3C#N)ccc21 [Example 9g, 6-chloro-5-cyano-4-((4-((1-cyanocyclopropyl)amino)-1-methyl-2-oxo-1,2-dihydroquinolin-6-yl)amino)picolinic acid] | –
18 | 6.13 | C[C@H](Nc1cc(=O)n(C)c2ccc(Nc3cc(C(=O)O)nc(Cl)c3C#N)cc12)C1CC1 [Example 9d, (S)-6-chloro-5-cyano-4-((4-((1-cyclopropylethyl)amino)-1-methyl-2-oxo-1,2-dihydroquinolin-6-yl)amino)picolinic acid] | –
19 | 6.66 | CCC(C)(C)Nc1cc(=O)n(C)c2ccc(Nc3cc(C(=O)O)nc(Cl)c3C#N)cc12 [Example 9o, 6-chloro-5-cyano-4-((1-methyl-2-oxo-4-(tert-pentylamino)-1,2-dihydroquinolin-6-yl)amino)picolinic acid] | –
20 | 6.17 | CC(Nc1cc(=O)n(CC2CCCCC2)c2ccc(Nc3ccnc(Cl)c3C#N)cc12)c1ncccn1 (stereo not drawn) [Example 10v, 2-chloro-4-((1-(cyclohexylmethyl)-2-oxo-4-((1-(pyrimidin-2-yl)ethyl)amino)-1,2-dihydroquinolin-6-yl)amino)nicotinonitrile] | –
21 | 6.56 | Cn1c(=O)cc(NCC2CC2)c2cc(Nc3cc(C(=O)O)nc(Cl)c3C#N)ccc21 [Example 9l, 6-chloro-5-cyano-4-((4-((cyclopropylmethyl)amino)-1-methyl-2-oxo-1,2-dihydroquinolin-6-yl)amino)picolinic acid] | –
